Converted amounts (≈) assume the structure as drawn.
What was measured:
[1] = system: MOLT-4F; test: Antitumor activity against human MOLT4F cells; assay type: functional
[2] = system: K562; test: Antitumor activity against human K562 cells; assay type: functional
[3] = molecular target: Protein kinase C alpha type (Homo sapiens, UniProt P17252); test: Displacement of [20-3H]phorbol 12,13-dibutyrate from recombinant PKCalpha
[4] = system: HL-60; test: Antitumor activity against human HL60 cells; assay type: functional
[5] = system: COLO 205; test: Antitumor activity against human COLO205 cells; assay type: functional
[6] = Antitumor activity against human NCI-H322 cells; assay type: functional
[7] = system: SK-MEL-5; test: Antitumor activity against human SK-MEL-5 cells; assay type: functional
[8] = Antitumor activity against human Hs 578T cells; assay type: functional
[9] = system: CCRF-CEM; test: Antitumor activity against human CCRF-CEM cells; assay type: functional

| SMILES | GI50 [1] [µg/mL] | GI50 [2] [µg/mL] | Ki [3] [nM] | GI50 [4] [µg/mL] | GI50 [5] [µg/mL] | GI50 [7] [µg/mL] | GI50 [9] [µg/mL] | GI50 [6] [µg/mL] | GI50 [8] [µg/mL] |
| --- | --- | --- | --- | --- | --- | --- | --- | --- | --- |
| COCOCCCCCCC/C=C1\CC(CO)(COC(=O)C(C)(C)C)OC1=O (stereo not given) | 1.84 (≈ 4.6 µM) | 3.69 (≈ 9.22 µM) | 198 | > 10 | 2.01 (≈ 5.01 µM) | 8.33 (≈ 20.8 µM) | > 10 | > 10 | > 10 |
| CC(C)(C)C(=O)OCC1(CO)C/C(=C\CCCCCCCCCCCO)C(=O)O1 (stereo not given) | 1.34 (≈ 3.26 µM) | 1.09 (≈ 2.64 µM) | 14.5 | > 10 | 2.49 (≈ 6.03 µM) | 5.81 (≈ 14.1 µM) | 0.65 (≈ 1.58 µM) | > 10 | > 10 |
| CC(C)(C)C(=O)OCC1(CO)C/C(=C/CCCCCCCCCCCCCCCO)C(=O)O1 (stereo not given) | 1.37 (≈ 2.93 µM) | 0.872 (≈ 1.86 µM) | 8.24 | 6.39 (≈ 13.6 µM) | 2.34 (≈ 4.99 µM) | 5.34 (≈ 11.4 µM) | 6.63 (≈ 14.1 µM) | > 10 | > 10 |
| CC(C)(C)C(=O)OCC1(CO)C/C(=C/CCCCCCCCCCCCCCC=O)C(=O)O1 (stereo not given) | 2.02 (≈ 4.33 µM) | 2.58 (≈ 5.53 µM) | 11.4 | > 10 | 5.14 (≈ 11 µM) | > 10 | > 10 | > 10 | > 10 |
| CC(C)(C)C(=O)OCC1(CO)C/C(=C\CCCCCCC=O)C(=O)O1 (stereo not given) |  |  | 39.3 |  |  |  |  |  |  |
| CC(C)(C)C(=O)OCC1(CO)C/C(=C\CCCCCCCCCCCCCCC(=O)O)C(=O)O1 (stereo not given) |  |  | 29.7 |  |  |  |  |  |  |
| COC(=O)CCCCCC/C=C1\CC(CO)(COC(=O)C(C)(C)C)OC1=O (stereo not given) |  |  | 533 |  |  |  |  |  |  |
| CC(C)(C)C(=O)OCCCCCCCCCCCCCCC/C=C1\CC(CO)(COC(=O)C(C)(C)C)OC1=O (stereo not given) | 0.605 (≈ 1.09 µM) | 0.352 (≈ 0.637 µM) | 10.5 | 7.78 (≈ 14.1 µM) | 0.597 (≈ 1.08 µM) | 3.46 (≈ 6.25 µM) | > 10 | > 10 | 5.24 (≈ 9.48 µM) |
| CC(C)(C)C(=O)OCC1(CO)C/C(=C\CCCCCCCCCCCCCCCN=[N+]=[N-])C(=O)O1 (stereo not given) |  |  | 15.6 |  |  |  |  |  |  |
| CC(C)(C)C(=O)OCC1(CO)C/C(=C\CCCCCCCCCCCCCCCN)C(=O)O1 (stereo not given) | 3.17 (≈ 6.77 µM) | 1.52 (≈ 3.25 µM) | 36.4 | > 10 | 1.53 (≈ 3.28 µM) | 5.1 (≈ 10.9 µM) | 2.82 (≈ 6.03 µM) | 8.43 (≈ 18 µM) | > 10 |
| CC(=O)NCCCCCCCCCCCCCCC/C=C1\CC(CO)(COC(=O)C(C)(C)C)OC1=O (stereo not given) | 6.35 (≈ 12.5 µM) | 3.38 (≈ 6.64 µM) | 8.25 | > 10 | 4.74 (≈ 9.29 µM) | > 10 | 1.08 (≈ 2.11 µM) | > 10 | > 10 |
| CC(=O)OCCCCCCCCCCCCCCC/C=C1\CC(CO)(COC(=O)C(C)(C)C)OC1=O (stereo not given) | 1.55 (≈ 3.03 µM) | 0.959 (≈ 1.88 µM) | 9.3 | > 10 | 2.1 (≈ 4.11 µM) | 5.62 (≈ 11 µM) | 7.55 (≈ 14.8 µM) | > 10 | > 10 |
| COCCCCCCC/C=C1\CC(CO)(COC(=O)C(C)(C)C)OC1=O (stereo not given) |  |  | 191 |  |  |  |  |  |  |
| COCCCCCCCCCCC/C=C1\CC(CO)(COC(=O)C(C)(C)C)OC1=O (stereo not given) | 2.38 (≈ 5.59 µM) | 0.516 (≈ 1.21 µM) | 8.2 | 5.22 (≈ 12.2 µM) | 0.541 (≈ 1.27 µM) | 2.81 (≈ 6.58 µM) | 0.701 (≈ 1.64 µM) | > 10 | 7.34 (≈ 17.2 µM) |
| CC(C)(C)C(=O)OCC1(CO)C/C(=C\CCCCCCCOC2CCCC2)C(=O)O1 (stereo not given) |  |  | 10.2 |  |  |  |  |  |  |
| CC(C)(C)C(=O)OCC1(CO)C/C(=C\CCCCCCCO)C(=O)O1 (stereo not given) |  |  | 378 |  |  |  |  |  |  |
| CCCCCCCCC(O)CCCCCC/C=C1\CC(CO)(COC(=O)C(C)(C)C)OC1=O (stereo not given) | 7.91 (≈ 16.9 µM) | 7.3 (≈ 15.6 µM) | 118 | > 10 | 8.91 (≈ 19 µM) | > 10 | 5.71 (≈ 12.2 µM) | > 10 | > 10 |
| COCCOCOCCCCCCC/C=C1\CC(CO)(COC(=O)C(C)(C)C)OC1=O (stereo not given) |  |  | 323 |  |  |  |  |  |  |
| CC(C)(C)C(=O)OCC1(CO)C/C(=C\CCCCCCCCCCC=O)C(=O)O1 (stereo not given) |  |  | 30.3 |  |  |  |  |  |  |
| COc1cccc2c1C(=O)c1c(O)c3c(c(O)c1C2=O)C[C@@](O)(C(=O)CO)C[C@@H]3O[C@H]1C[C@H](N)[C@H](O)[C@H](C)O1.Cl [DOXORUBICIN HYDROCHLORIDE] | 0.277 | 0.375 |  | 0.413 | 0.523 | 0.481 | 0.181 | 0.615 | 0.596 |

The remaining compounds from weak to strong by Ki [3], led by results:

| GI50 [1] [µg/mL] | GI50 [2] [µg/mL] | Ki [3] [nM] | GI50 [4] [µg/mL] | GI50 [5] [µg/mL] | GI50 [7] [µg/mL] | GI50 [9] [µg/mL] | SMILES | GI50 [6] [µg/mL] | GI50 [8] [µg/mL] |
| --- | --- | --- | --- | --- | --- | --- | --- | --- | --- |
| 1.03 (≈ 2.41 µM) | 1.15 (≈ 2.69 µM) | 8.1 | 2.96 (≈ 6.94 µM) | 0.491 (≈ 1.15 µM) | 2.99 (≈ 7.02 µM) | 0.877 (≈ 2.06 µM) | CCCCCOCCCCCCC/C=C1\CC(CO)(COC(=O)C(C)(C)C)OC1=O (stereo not given) | 9.52 (≈ 22.3 µM) | 3 (≈ 7.04 µM) |
|  |  | 8 |  |  |  |  | CC(C)(C)C(=O)OCC1(CO)C/C(=C\CCCCCCCCCCCCCCCOC=O)C(=O)O1 (stereo not given) |  |  |
| 0.227 (≈ 0.535 µM) | < 0.1 | 7.83 | 2.4 (≈ 5.65 µM) | 0.253 (≈ 0.596 µM) | 0.779 (≈ 1.83 µM) | 0.14 (≈ 0.33 µM) | CCCCCCCCCCCCC/C=C1\CC(CO)(COC(=O)C(C)(C)C)OC1=O (stereo not given) | > 10 | 2.27 (≈ 5.34 µM) |
|  |  | 7.74 |  |  |  |  | CC(C)CCOCCCCCCC/C=C1\CC(CO)(COC(=O)C(C)(C)C)OC1=O (stereo not given) |  |  |
|  |  | 7.44 |  |  |  |  | CCCCCCCCCOCCC/C=C1\CC(CO)(COC(=O)C(C)(C)C)OC1=O (stereo not given) |  |  |
|  |  | 7.15 |  |  |  |  | CCCCCCCCCCCCC/C=C1/CC(CO)(COC(=O)C(C)(C)C)OC1=O (stereo not given) |  |  |
| > 10 | 0.856 (≈ 1.72 µM) | 6.83 | > 10 | 3.86 (≈ 7.77 µM) | 7.8 (≈ 15.7 µM) | 0.691 (≈ 1.39 µM) | COC(=O)CCCCCCCCCCCCCC/C=C1\CC(CO)(COC(=O)C(C)(C)C)OC1=O (stereo not given) | > 10 | > 10 |
|  |  | 6.4 |  |  |  |  | CC(C)(C)C(=O)OCC1(CO)C/C(=C\CCCCCCCCCCCCCCCO)C(=O)O1 (stereo not given) |  |  |
| > 10 | 5.11 (≈ 10.9 µM) | 6.38 | > 10 | > 10 | > 10 | 0.933 (≈ 2 µM) | CC(C)(C)C(=O)OCC1(CO)C/C(=C\CCCCCCCCCCCCCCC=O)C(=O)O1 (stereo not given) | > 10 | > 10 |
| 1.64 (≈ 3.4 µM) | 0.138 (≈ 0.286 µM) | 5 | 3.97 (≈ 8.22 µM) | 0.178 (≈ 0.369 µM) | 2.13 (≈ 4.42 µM) | < 0.1 | COCCCCCCCCCCCCCCC/C=C1/CC(CO)(COC(=O)C(C)(C)C)OC1=O (stereo not given) | > 10 | 6.77 (≈ 14 µM) |
| 0.498 (≈ 1.03 µM) | 0.189 (≈ 0.392 µM) | 4.4 | 4.65 (≈ 9.64 µM) | 0.118 (≈ 0.244 µM) | 1.75 (≈ 3.63 µM) | 4.26 (≈ 8.83 µM) | COCCCCCCCCCCCCCCC/C=C1\CC(CO)(COC(=O)C(C)(C)C)OC1=O (stereo not given) | > 10 | 5.45 (≈ 11.3 µM) |
| 2.14 (≈ 4.43 µM) | 0.156 (≈ 0.323 µM) | 3.2 | 4.53 (≈ 9.37 µM) | 0.264 (≈ 0.547 µM) | 1.43 (≈ 2.96 µM) | 0.304 (≈ 0.63 µM) | CCCCCCCCCOCCCCCCC/C=C1\CC(CO)(COC(=O)C(C)(C)C)OC1=O (stereo not given) | > 10 | 4.64 (≈ 9.61 µM) |

Source: ChEMBL document CHEMBL1159092, “Polar 3-alkylidene-5-pivaloyloxymethyl-5'-hydroxymethyl-gamma-lactones as protein kinase C ligands and antitumor agents” (Bioorg Med Chem Lett, 2010)
